Measurements as given in patent publication US20230279024A1, “TRIAZINE COMPOUND AND COMPOSITION AND USE THEREOF” (BEIJING FINDCURE BIOSCIENCES, LTD., priority 2020, published 2023).

Assays:
Ba/F3 AXL cells = test: Cell activity test: growth inhibition of Ba/F3 AXL cell line (CTG, 72 h); type: cell-based; conditions: Mus musculus, BaF3
Method: This experiment was conducted by detecting the inhibitory effect of compounds on the growth of Ba/F3 AXL cell line and Ba/F3 parental cell line. Cells in logarithmic growth stage were harvested and counted by platelet counter. Trypan blue rejection method was used to detect cell viability to ensure that the cell viability was above 90%. Adjust cell concentration; 90 μL cell suspension was added to 96-well plates, respectively; Cells in 96-well plates were cultured overnight at 37° C., 5% CO2 and 95% humidity. A 10-fold drug solution was prepared, with the highest concentration of 10 μM, and a total of 9 concentrations were diluted at 3.16 times the ratio. 10 μL drug solution was added to each well of the 96-well plate inoculated with cells, and three wells were set for each drug concentration; 96-well plates were incubated at 37° C., 5% CO2 and 95% humidity for 72 h, and CTG analysis was performed. Thaw the CTG reagent and balance the cell plates to room temperature for 30 minutes. Add the same volume of CTG solution to each well and vibrate on a fixed-rail shaker for 5 minutes to crack the cells. Place the cell plates at room temperature for 20 minutes to stabilize the cold light signal and read the cold light value. The GraphPad Prism 5.0 software was used to analyze the data, and the nonlinear S-curve regression was used to fit the data to obtain the dose-effect curve, and the IC50 value was calculated accordingly. Cell survival rate (%)=(Lum drug to be tested −Lum culture medium control)/(Lum cell control−Lum culture medium control)×100%.

AXL (h) kinase = AXL (h) kinase (Homo sapiens (Human), UniProt P30530); test: AXL (h) kinase activity test (EZ Reader mobility shift, FLPeptide30); type: biochemical; conditions: ATP 100 μM, AXL 1 nM
Method: The effect of the disclosed compounds as protein kinase inhibitors can be evaluated by the following experiments. The AXL (h) kinase activity of the compounds of the invention is tested by the following methods:
Reagents used in the experiment were AXL (Carna Bioscience, Cat No.: 08-107) and FLPeptide30 (PerkinElmer, Cat No.: 760430). The instruments involved were thermotank (Thermo Scientific), oscillator (QILINBEIER), EZ Reader (PerkinElmer, Cat No.: 122919), Non-contact stage pipetting system (Labcyte Inc., Cat No.: Echo 550), and non-contact nanoliter pipetting system (TECAN, Cat No.: EVO200).
Compound dilution: 1) Dissolve the compound in DMSO to the appropriate concentration; 2) Using TECAN EVO200 to dilute 10 concentrations in 384 microplates by three times gradient, the highest concentration is 1 mM; Echo550 was used to transfer 20 nL solution from the dilution plate to the test plate.
2) Add 15 μL solution 1 to each well of the test plate and incubate at room temperature for 30 minutes.
4) Add 5 μL solution 2 to start the reaction, and the final volume of each well is 20 μL.
5) Incubated at 25° C. for 90 min, and then added 75 μL stop solution (containing 0.5 M EDTA) to terminate the reaction.
6) The sample of each well was analyzed using EZ reader.
1) Based on the measured conversion rate (CR), the Remaining Activity (%) of the kinase was calculated according to the following function:
2) XLFit (Equation 201) software was used to fit IC50.
The above methods can be used to obtain the inhibitory IC50 and/or inhibitory constant Ki.

Chain of AXL (h) kinase (P30530 473-894): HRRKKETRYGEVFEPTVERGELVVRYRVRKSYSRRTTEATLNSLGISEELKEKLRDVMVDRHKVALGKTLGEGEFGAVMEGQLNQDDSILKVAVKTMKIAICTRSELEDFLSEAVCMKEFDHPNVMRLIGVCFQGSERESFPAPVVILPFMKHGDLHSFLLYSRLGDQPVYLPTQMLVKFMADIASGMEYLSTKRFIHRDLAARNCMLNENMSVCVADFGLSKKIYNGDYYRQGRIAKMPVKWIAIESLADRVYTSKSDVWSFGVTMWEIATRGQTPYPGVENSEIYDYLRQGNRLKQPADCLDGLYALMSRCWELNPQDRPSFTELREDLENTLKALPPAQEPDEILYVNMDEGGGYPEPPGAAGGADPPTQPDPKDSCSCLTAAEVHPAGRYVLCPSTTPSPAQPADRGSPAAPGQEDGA

| SMILES | IC50 (Ba/F3 AXL cells) [µM] | IC50 (AXL (h) kinase) [µM] |
| --- | --- | --- |
| Nc1ncnn2c(C3CCNCC3)cc(-c3ccc(NC(=O)c4c5n(n(-c6ccccc6)c4=O)CCOC5)cc3)c12 [example 2, N-(4-(4-amino-7-(piperidin-4-yl)pyrrolo[2,1-f][1,2,4]triazin-5-yl)phenyl)-2-oxo-1-phenyl-2,4,6,7-tetrahydro-1H-pyrazolo[5,1-c][1,4]oxazine-3-carboxamide] | 0.05 to 0.1 | > 0.1 |
| Nc1ncnn2c(C3CCNCC3)cc(-c3ccc(NC(=O)c4c5n(n(-c6ccccc6)c4=O)CCC5)cc3)c12 [example 5, N-(4-(4-amino-7-(piperidin-4-yl)pyrrolo[2,1-f][1,2,4]triazin-5-yl)phenyl)-2-oxo-1-phenyl-2,4,5,6-tetrahydro-1H-pyrrolo[1,2-b]pyrazole-3-carboxamide] | > 0.1 | > 0.1 |
| CC(C)C(=O)N1CCC(c2cc(-c3ccc(NC(=O)c4c5n(n(-c6ccccc6)c4=O)CCC5)cc3)c3c(N)ncnn23)CC1 [example 6, N-(4-(4-amino-7-(1-isobutyrylpiperidin-4-yl)pyrrolo[2,1-f][1,2,4]triazin-5-yl)phenyl)-2-oxo-1-phenyl-2,4,5,6-tetrahydro-1H-pyrrolo[1,2-b]pyrazole-3-carboxamide] | < 0.005 | – |
| CC(C)C(=O)N1CCC(c2cc(-c3ccc(NC(=O)c4c5n(n(-c6ccccn6)c4=O)CCOC5)cc3F)c3c(N)ncnn23)CC1 [example 9, N-(4-(4-amino-7-(1-isobutyrylpiperidin-4-yl)pyrrolo[2,1-f][1,2,4]triazin-5-yl)-3-fluorophenyl)-2-oxo-1-(pyridin-2-yl)-2,4,6,7-tetrahydro-1H-pyrazolo[5,1-c][1,4]oxazine-3-carboxamide] | 0.005 to 0.05 | 0.005 to 0.05 |
| CC(C)(F)C(=O)N1CCC(c2cc(-c3ccc(NC(=O)c4c5n(n(-c6ccccn6)c4=O)CCOC5)cc3)c3c(N)ncnn23)CC1 [example 12, N-(4-(4-amino-7-(1-(2-fluoro-2-methylpropanoyl)piperidin-4-yl)pyrrolo[2,1-f][1,2,4]triazin-5-yl)phenyl)-2-oxo-1-(pyridin-2-yl)-2,4,6,7-tetrahydro-1H-pyrazolo[5,1-c][1,4]oxazine-3-carboxamide] | 0.005 to 0.05 | – |
| CC(C)(O)C(=O)N1CCC(c2cc(-c3ccc(NC(=O)c4c5n(n(-c6ccccn6)c4=O)CCCC5)cc3)c3c(N)ncnn23)CC1 [example 13, N-(4-(4-amino-7-(1-(2-hydroxy-2-methylpropanoyl)piperidin-4-yl)pyrrolo[2,1-f][1,2,4]triazin-5-yl)phenyl)-2-oxo-1-(pyridin-2-yl)-1,2,4,5,6,7-hexahydropyrazolo[1,5-a]pyridine-3-carboxamide] | 0.005 to 0.05 | 0.005 to 0.05 |
| CC(C)(O)C(=O)N1CCC(c2cc(-c3ccc(NC(=O)c4c5n(n(-c6ccccn6)c4=O)CCOC5)cc3F)c3c(N)ncnn23)CC1 [example 14, N-(4-(4-amino-7-(1-(2-hydroxy-2-methylpropanoyl)piperidin-4-yl)pyrrolo[2,1-f][1,2,4]triazin-5-yl)-3-fluorophenyl)-2-oxo-1-(pyridin-2-yl)-2,4,6,7-tetrahydro-1H-pyrazolo[5,1-c][1,4]oxazine-3-carboxamide] | 0.005 to 0.05 | 0.05 to 0.1 |
| CC(C)(O)C(=O)N1CCC(c2cc(-c3ccc(NC(=O)c4c5n(n(-c6ccccn6)c4=O)CCOC5)cc3)c3c(N)ncnn23)CC1 [example 15, N-(4-(4-amino-7-(1-(2-hydroxy-2-methylpropanoyl)piperidin-4-yl)pyrrolo[2,1-f][1,2,4]triazin-5-yl)phenyl)-2-oxo-1-(pyridin-2-yl)-2,4,6,7-tetrahydro-1H-pyrazolo[5,1-c][1,4]oxazine-3-carboxamide] | 0.005 to 0.05 | 0.005 to 0.05 |
| CC(C)C(=O)N1CCC(c2cc(-c3ccc(NC(=O)c4c5n(n(-c6ccccn6)c4=O)CCCC5)cc3F)c3c(N)ncnn23)CC1 [example 17, N-(4-(4-amino-7-(1-isobutyrylpiperidin-4-yl)pyrrolo[2,1-f][1,2,4]triazin-5-yl)-3-fluorophenyl)-2-oxo-1-(pyridin-2-yl)-1,2,4,5,6,7-hexahydropyrazolo[1,5-a]pyridine-3-carboxamide] | 0.005 to 0.05 | – |
| Nc1ncnn2c(C3CCC(O)CC3)cc(-c3ccc(NC(=O)c4c5n(n(-c6ccccc6)c4=O)CCOC5)nc3)c12 (stereo not shown) [example 23] | < 0.005 | – |
| Nc1ncnn2c1c(-c1ccc(NC(=O)c3c4n(n(-c5ccccc5)c3=O)CCCC4)cc1F)cc2[C@H]1CC[C@H](O)CC1 [example 24, N-(4-(4-amino-7-((1r,4r)-4-hydroxycyclohexyl)pyrrolo[2,1-f][1,2,4]triazin-5-yl)-3-fluorophenyl)-2-oxo-1-phenyl-1,2,4,5,6,7-hexahydropyrazolo[1,5-a]pyridine-3-carboxamide] | < 0.005 | – |
| Nc1ncnn2c(C3CCN(C(=O)C4CC4)CC3)cc(-c3ccc(NC(=O)c4c5n(n(-c6ccccn6)c4=O)CCOC5)cc3F)c12 [example 28, N-(4-(4-amino-7-(1-(cyclopropanecarbonyl)piperidin-4-yl)pyrrolo[2,1-f][1,2,4]triazin-5-yl)-3-fluorophenyl)-2-oxo-1-(pyridin-2-yl)-2,4,6,7-tetrahydro-1H-pyrazolo[5,1-c][1,4]oxazine-3-carboxamide] | 0.005 to 0.05 | – |
| Nc1ncnn2c(C3CCC(O)CC3)cc(-c3ccc(NC(=O)c4c5n(n(-c6ccccn6)c4=O)CCOC5)cc3)c12 (stereo not shown) [example 32, N-(4-(4-amino-7-((1r,4r)-4-hydroxycyclohexyl)pyrrolo[2,1-f][1,2,4]triazin-5-yl)phenyl)-2-oxo-1-(pyridin-2-yl)-2,4,6,7-tetrahydro-1H-pyrazolo[5,1-c][1,4]oxazine-3-carboxamide] | 0.005 to 0.05 | – |
| Nc1ncnn2c1c(-c1ccc(NC(=O)c3c4n(n(-c5ccccn5)c3=O)CCOC4)cc1)cc2[C@H]1CC[C@H](O)CC1 [example 32, N-(4-(4-amino-7-((1r,4r)-4-hydroxycyclohexyl)pyrrolo[2,1-f][1,2,4]triazin-5-yl)phenyl)-2-oxo-1-(pyridin-2-yl)-2,4,6,7-tetrahydro-1H-pyrazolo[5,1-c][1,4]oxazine-3-carboxamide] | – | < 0.005 |
| [2H][C@]1(O)CC[C@H](c2cc(-c3ccc(NC(=O)c4c5n(n(-c6ccccc6)c4=O)CCOC5)cc3F)c3c(N)ncnn32)CC1 [example 33, N-(4-(4-amino-7-((1r,4r)-4-hydroxycyclohexyl-4-d)pyrrolo[2,1-f][1,2,4]triazin-5-yl)-3-fluorophenyl)-2-oxo-1-phenyl-2,4,6,7-tetrahydro-1H-pyrazolo[5,1-c][1,4]oxazine-3-carboxamide] | – | 0.005 to 0.05 |
| CC(C)C(=O)N1CCC(c2cc(-c3ccc(NC(=O)c4c5n(n(-c6ccccc6)c4=O)CCOC5)nc3)c3c(N)ncnn23)CC1 [example 35, N-(5-(4-amino-7-(1-isobutyrylpiperidin-4-yl)pyrrolo[2,1-f][1,2,4]triazin-5-yl)pyridin-2-yl)-2-oxo-1-phenyl-2,4,6,7-tetrahydro-1H-pyrazolo[5,1-c][1,4]oxazine-3-carboxamide] | < 0.005 | – |
| Nc1ncnn2c(C3CCN(C(=O)C4CCC4)CC3)cc(-c3ccc(NC(=O)c4c5n(n(-c6ccccn6)c4=O)CCC5)cc3)c12 [example 40] | – | > 0.1 |
| Nc1ncnn2c(C3CCN(C(=O)C4CC4)CC3)cc(-c3ccc(NC(=O)c4c5n(n(-c6ccncc6)c4=O)CCCC5)cc3)c12 [example 44] | – | 0.05 to 0.1 |
| CC(C)(F)C(=O)N1CCC(c2cc(-c3ccc(NC(=O)c4c5n(n(-c6cccnn6)c4=O)CCCC5)cc3)c3c(N)ncnn23)CC1 [example 52] | – | 0.005 to 0.05 |
